# In the NIST ThermoML archive (doi:10.1016/j.jct.2016.10.039):
# ± gives the expanded uncertainty stated by the source.
# Assay: mn = molality of the nth substance listed, in mol/kg
# Settings: 298.15 K, 85 kPa, Liquid, Alternating current cell with electrodes
smiles,measurement,setting,value
CCCCCCCCCCCC[N+](C)(C)C.[Br-] [dodecyltrimethylammonium bromide] + O,electrical conductivity,m1 = 0.00185,0.0125 ± 0.001 S/m
same,electrical conductivity,m1 = 0.00366,0.0246 ± 0.002 S/m
same,electrical conductivity,m1 = 0.00542,0.0367 ± 0.0031 S/m
same,electrical conductivity,m1 = 0.00714,0.0487 ± 0.0042 S/m
same,electrical conductivity,m1 = 0.00882,0.0609 ± 0.0053 S/m
same,electrical conductivity,m1 = 0.01047,0.0731 ± 0.0065 S/m
same,electrical conductivity,m1 = 0.01207,0.0856 ± 0.0077 S/m
same,electrical conductivity,m1 = 0.01364,0.0976 ± 0.0082 S/m
same,electrical conductivity,m1 = 0.01517,0.108 ± 0.0076 S/m
same,electrical conductivity,m1 = 0.01667,0.116 ± 0.0061 S/m
same,electrical conductivity,m1 = 0.01813,0.121 ± 0.005 S/m
same,electrical conductivity,m1 = 0.01957,0.125 ± 0.0049 S/m
same,electrical conductivity,m1 = 0.02097,0.128 ± 0.005 S/m
same,electrical conductivity,m1 = 0.02234,0.132 ± 0.0051 S/m
same,electrical conductivity,m1 = 0.02368,0.135 ± 0.0054 S/m
same,electrical conductivity,m1 = 0.025,0.138 ± 0.0056 S/m
same,electrical conductivity,m1 = 0.02629,0.141 ± 0.006 S/m
same,electrical conductivity,m1 = 0.02755,0.145 ± 0.0064 S/m
same,electrical conductivity,m1 = 0.02879,0.148 ± 0.0066 S/m
same,electrical conductivity,m1 = 0.03,0.151 ± 0.0068 S/m
same,electrical conductivity,m1 = 0.03119,0.154 ± 0.0071 S/m
same,electrical conductivity,m1 = 0.03235,0.157 ± 0.0073 S/m
same,electrical conductivity,m1 = 0.0335,0.16 ± 0.0032 S/m
CCCCCCCCCCCCn1cc[n+](C)c1.[Br-] [1-dodecyl-3-methylimidazolium bromide] + O,electrical conductivity,m1 = 0.00123,0.0086 ± 0.0007 S/m
same,electrical conductivity,m1 = 0.00244,0.0169 ± 0.0014 S/m
same,electrical conductivity,m1 = 0.00361,0.0251 ± 0.0021 S/m
same,electrical conductivity,m1 = 0.00476,0.0331 ± 0.0028 S/m
same,electrical conductivity,m1 = 0.00588,0.0411 ± 0.0034 S/m
same,electrical conductivity,m1 = 0.00698,0.0489 ± 0.0041 S/m
same,electrical conductivity,m1 = 0.00805,0.0567 ± 0.0049 S/m
same,electrical conductivity,m1 = 0.00909,0.0644 ± 0.0049 S/m
same,electrical conductivity,m1 = 0.01011,0.0702 ± 0.0039 S/m
same,electrical conductivity,m1 = 0.01111,0.0736 ± 0.0031 S/m
same,electrical conductivity,m1 = 0.01209,0.0764 ± 0.003 S/m
same,electrical conductivity,m1 = 0.01304,0.0788 ± 0.0032 S/m
same,electrical conductivity,m1 = 0.01398,0.0814 ± 0.0033 S/m
same,electrical conductivity,m1 = 0.01489,0.0836 ± 0.0032 S/m
same,electrical conductivity,m1 = 0.01579,0.0856 ± 0.0034 S/m
same,electrical conductivity,m1 = 0.01667,0.0877 ± 0.0037 S/m
same,electrical conductivity,m1 = 0.01753,0.0898 ± 0.0038 S/m
same,electrical conductivity,m1 = 0.01837,0.0918 ± 0.004 S/m
same,electrical conductivity,m1 = 0.01919,0.0938 ± 0.0041 S/m
same,electrical conductivity,m1 = 0.02,0.0957 ± 0.0043 S/m
same,electrical conductivity,m1 = 0.02079,0.0977 ± 0.0047 S/m
same,electrical conductivity,m1 = 0.02157,0.0997 ± 0.002 S/m
O [water] + CCCCCCCCCCCCn1cc[n+](C)c1.[Br-],electrical conductivity,m2 = 0,0.00024 ± 1e-05 S/m
O [water] + CCCCCCCCCCCC[N+](C)(C)C.[Br-],electrical conductivity,m2 = 0,0.00021 ± 1e-05 S/m
